Consider one compound from paper PMC9913425, “Pentacyclic Triterpenoids-Based Ionic Compounds: Synthesis, Study of Structure–Antitumor Activity Relationship, Effects on Mitochondria and Activation of Signaling Pathways of Proliferation, Genome Reparation and Early Apoptosis” (Cancers, 2023).

The subject of test [1] is U937. In words: In vitro cytotoxicity, IC50 by flow cytometry (Guava ViaCount). The class given is cell-based. To be noted: U937 cells. Put shortly:
(§1)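 Suspension lines kept in RPMI 1640 with 10% FBS and […] at 37 °C, 5% CO2; cells seeded at 5 × 10^4 per well and incubated overnight before compound exposure. Viability counted by flow cytometry with Guava ViaCount staining to derive IC50.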

Test [2] deals with K562. Described as above. The class given is cell-based. To be noted: K562 cells. Put shortly: as §1
Test [3] deals with HEK293. Described as above. The format is cell-based. To be noted: HEK293 cells, conditionally normal. The essentials: as §1
For test [4], the system named is Jurkat. Described as above. The format is cell-based. To be noted: Jurkat cells. The essentials: as §1
The test system of test [5] is mitochondria of Jurkat tumor cells. Briefly: Mitochondrial damage (MitoSense Red staining). The class given is cell-based. To be noted: compound at IC50 concentration, incubation 2 h.
The test system of test [6] is Jurkat cells. In words: Cell cycle analysis (Guava Cell Cycle Reagent). To be noted: IC50 concentration, 24 h, flow histogram. The class given is cell-based. Here is the method:
Our findings are consistent with the literature data that many ICs predominantly affect the G2 and S phases, reducing them.
The incubation time of ionic liquids with cells was 24 h. […] It is listed because the picture prints the label with values. / The fit parameters printed in each histogram (RMS, Mean G1, Mean G2, G2/G1, CV G1, CV G2) were left out as statistics of the cell-cycle model.

Test [7] has as its system HL60. Briefly: In vitro cytotoxicity, IC50 by flow cytometry (Guava ViaCount). To be noted: HL60 cells. The format is cell-based, human. The essentials: as §1
For test [8], the system named is A2780. Described as above. The format is cell-based, human. To be noted: A2780 cells. The essentials:
as §1

Test [9] deals with Jurkat cells. In words: Apoptosis/necrosis induction (Annexin V Alexa Fluor488, 7AAD staining). The format is cell-based. To be noted: compound at IC50 concentration, incubation 2 h. Put shortly:
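Jurkat cells stained with Annexin V Alexa Fluor488, 7AAD and MitoSense Red to assess membrane state, DNA and mitochondrial membrane integrity, distinguishing apoptosis from necrosis; lower MitoSense Red fluorescence marks mitochondrial damage.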

For `C[n+]1ccn(CCCCCCOC(=O)[C@]23CCC(C)(C)CC2C2=CCC4[C@@]5(C)CC[C@H](O)C(C)(C)C5CC[C@@]4(C)[C@]2(C)CC3)c1.O=C([O-])c1ccccc1O` (stereo partly drawn) [13f, 1-(6-{[(3β)-3-Hydroxyolean-12-en-28-oyl]oxy}hexyl)-3-methylimidazolium Salicylate], the IC50 in [1] was found to be 11 ± 1 nM; in [2], 13 ± 1 nM; in test [3], 37 ± 3 nM; in [4] it was 8 ± 1 nM; in test [7], 3 ± 1 nM; in test [8], 18 ± 2 nM. In test [5], the “Mito-Damage (%)” value is on record as 49.43%. In addition, the “Freq Sub-G1 (hypodiploid cell population)” value in test [6] was found to be 9.83%. The “Apoptosis (%) Early” value in [9] came out at 0.17%. For the same compound, in test [9], the “Apoptosis (%) Late” value was found to be 35.95%. Further, the “Apoptosis (%) Necrosis” value in test [9] is reported as 11.07%.
